Where “and” joins values, the source holds several entries; their conditions need not be identical. Equal entries are not always repeated. Residues, ends and D or L forms follow the SMILES beside them. *: point of attachment. Cbz = O=C(OCc1ccccc1)*
Experiments:
Assay type in all cases: cell-based
[1] = system: DLD1 cells; assay: Cell viability (CellTiter-Glo) with exogenous 3KDS treatment
Description: Cell viability was measured using CellTiter-Glo 2.0 Cell Viability Assay (Promega), which measures the number of viable (metabolically active) cells in culture by quantitating the amount of ATP present. CellTiter-Glo (CTG) Reagent and 96 well plates containing the cells were equilibrated to room temperature, 20 ul of CTG reagent was added to each well of cells and incubated for 20 minutes protected from light. Luminescence was read with an integration time of 1.0 sec using the Beckman Coulter DTX880 Multimode Detector plate reader.
For determination of relative viability as depicted in figures, CTG was measured at 2 different timepoints. The first viability measurement was taken as the baseline on the day after cells were plated to 96 wells, and the second viability measurement was taken at a later timepoint (1-5 days after baseline) to calculate the fold change viable cells over time for each condition (Day X CTG/Baseline CTG). These fold change values were then divided by the fold change of the control condition (=1.0) to determine the relative viability.

[2] = system: DLD1 cells; assay: Cell morphology by light microscope / calnexin immunofluorescence
[3] = system: DLD1 cells; assay: Protein aggresome staining; conditions: 3 μM MG132, 18 hr
Description: Cells were grown on coverslips coated with PDL/laminin and were stained for protein aggresomes at 9 days post lentiviral infection for CTRL or KDSR KO or 18 hr post treatment with vehicle or 3 uM MG132. Protein aggresomes were detected using the PROTOEOSTAT Aggresome detection kit (Enzo Life Sciences), which contains a dye that fluoresces upon intercalation into the cross-beta spine of protein structures found in misfolded and aggregated proteins. For aggresome staining, cells were fixed in 4% PFA, washed in PBS, and permeabilized in 0.5% TXB on ice with gentle shaking for 30 minutes. Cells were washed in PBS following permeabilization and were subsequently incubated with the Aggresome Detection Reagent diluted 1:2000 in PBS for 45 min at room temperature protected from light. Cells were washed with PBS after staining and coverslips were mounted to microscope slides using ProLong Gold Antifade Mountant containing DAPI. Cells were imaged using the Zeiss LSM700 confocal microscope and Zen Black 2012 Software.

[4] = system: DLD1 cells; assay: Western blot of K48 ubiquitinated proteins; conditions: DLD1 cells treated with MG132 (FIG. 4C)
Description: (§1) Cells were washed in cold PBS and resuspended in 1% Triton-X 100 containing protease inhibitor cocktail and lysed on ice. Following cell lysis, samples were centrifuged at 13,000 rpm at 4° C. for 10 min to remove cell debris and the supernatant (cell lysate) was collected. The protein concentration of each lysate was measured by Bradford Assay. Western blot samples were prepared by diluting lysates in 6× Laemmli Buffer and boiled at 95° C. for 10 min. Samples were loaded to polyacrylamide gels at equal protein concentrations and analyzed by standard SDS-PAGE western blotting techniques. Protein levels were detected using HRP-conjugated secondary antibodies and chemiluminescent substrates (Pierce ECL or Pico PLUS).

[5] = system: DLD1 cells; assay: LC-MS quantification of 3KDS in cultured cells
Description: The levels of 3-ketodihydrosphingosine (3KDS) were quantified in both cells grown in culture and in tumor tissues from the in vivo xenograft experiment. Lipid analysis was performed at the UCSD Lipidomics Core^17. For the in vitro experiment, DLD1 cells were infected for lentiviral transduction of pLCv2 with nontargeting CTRL guide, KDSR g1, or SPTLC1 g1. Cells were selected with puromycin for 5 days and were treated with the appropriate conditions (vehicle, 50 uM palmitate, 15 uM myriocin) at 6 days post infection. Cells were trypsinized, quickly washed 2× in cold PBS, centrifuged, and the cell pellet was collected for analysis at 8 days post lentiviral infection and 48 hr post treatment. 3KDS quantification was normalized to the protein content of n=3 independently prepared cell extracts for each condition.
Samples were extracted with DCM/MeOH (1:1) and 1× internal standards were added to extracts. Samples were vortexed, sonicated for 10 minutes, and then centrifuged at 5000 rpm for 5 min. Samples were re-extracted, combined, and dried down in a speed vac. Samples were run on the ACQUITY UPLC System (Waters) on a Phenomenex Kinetex C18 column. Mass spectrometry analysis was performed on the Sciex 6500 Qtrap mass spectrometer and data were analyzed using Sciex Analyst and Multiquant software packages.

[6] = system: DLD1 cells; assay: Lipid free viability assay; conditions: 15 μM myriocin, 72 hr, 10% charcoal stripped serum (FIG. 1F)
Description: DLD1 cells were grown in media with 10% FBS (normal growth condition) or 10% charcoal stripped serum (lipid free condition) for 1 week prior to lentiviral infection for CRISPR-mediated gene KO. Cells were infected in 6 wells, selected with puromycin, and plated to 96 wells as described previously in the appropriate serum conditions throughout the entirety of the experiment. Baseline CTG was measured at day 7 post infection, and subsequently at day 10 post infection. For the myriocin treated condition, CTRL cells were treated with 15 μM myriocin at day 7 post infection and were treated for 72 hr at the time of day 10 CTG measurement. Viability was calculated over the course of 3 days of growth and measured relative to CTRL untreated condition.

[7] = system: DLD1 cells; assay: Myriocin rescue and palmitate synergy viability experiments in KDSR KO cells
Description: Cells were plated to 6 wells and infected with lentiviruses containing pLCv2 CTRL or guides targeting KDSR. Cells were selected with puromycin for 4-5 days and were then counted and plated to 96 well plates at 6 days post lentiviral infection at 600-800 cells/well in technical triplicate or quadruplicate. Baseline cell viability was read at 7 days post infection, at which time the other 96 well plates (to be read at later timepoints) were treated with DMSO vehicle or 2 uM myriocin for rescue experiments or with EtOH vehicle or 50 uM palmitate for synergy experiments. For myriocin rescue experiments, subsequent CTG readings were taken at days 3 and 5 post treatment (10 and 12 days post infection) to determine the effect of SPT inhibition on KDSR KO toxicity. For synergy experiments, subsequent CTG readings were taken at 24, 48, and 72 hr post treatment (8, 9, and 10 days post infection) to measure the effect of KDSR KO and palmitate treatment on cell viability relative to CTRL vehicle treated cells.
To determine whether KDSR KO and 50 uM palmitate have a synergistic toxic effect on cells (FIG. 2C), we used the Bliss Independence Model. […]

[8] = system: KDSR; assay: Western blot of KDSR protein after CRISPR/Cas9 targeting in non-cancerous cell lines; conditions: seven non-cancerous cell lines (THLE3, CCD841CON, CCD18Lu, HIEC6, HS67, GM05565, GM02037), FIGS. 10A-10G
Description: as §1
Western blots were performed to confirm that KDSR expression was reduced or eliminated in the cell line after CRISPR/Cas9 KO of KDSR. […] For each experiment, actin served as a loading control.

[9] = system: DLD1 cells; assay: LC-MS quantification of sphingomyelin and ceramide after CRISPR-Cas9 gene KO; conditions: biological replicates (1)-(3); for Total (RATIO), Cer + SM by LC-MS / Cer (RATIO), total ceramide level by LC-MS / SM (RATIO), total sphingomyelin level by LC-MS: 8 days post lentiviral infection; for Cer (RATIO), total ceramide level by LC-MS / SM (RATIO), total sphingomyelin level by LC-MS: normalized intensities relative to internal standards per mg protein
Description: DLD1 cells were plated to 6 wells and infected for lentiviral transduction of lentiCRISPR v2 with nontargeting CTRL guide, KDSR g1, or SPTLC1 g1, with each condition infected in biological triplicate. Cells were selected with puromycin for 5 days and collected for analysis at 8 days post lentiviral infection. Cells were trypsinized, quickly washed 2× in cold PBS, centrifuged, and the cell pellet was collected for analysis. Lipid analysis was performed at the UCSD Lipidomics Core^17. For quantification of sphingomyelin and ceramide species, samples were extracted via Butanol-Methanol (BUME) with 100 ul/sample. The lipid (top) layer was collected, solvent was removed, and samples were reconstituted in 100 ul LC solvent (18:1:1, IPA/DCM/MeOH). Samples were run on Reverse Phase-Ultra Performance Liquid Chromatography (Thermo Vanquish UPLC) on the Cortecs T3 C18 column. Mass spectrometry was performed on the Thermo Q Exactive Mass Spectrometer with MS/MS data dependent acquisition scan mode and analyzed with Lipid Data Analyzer (LDA) and LipidSearch software. All data are expressed as normalized intensities relative to exactly measured internal standards and constitute relative abundances per mg protein. For the identification of each lipid molecular species including its exact fatty acid composition, we used MS/MS footprinting techniques. Details of methods and nomenclature used were adapted from a previous study^18.
Total sphingomyelin levels under each condition were calculated as the sum of 121 analytes and total ceramide levels as the sum of 81 analytes. The ratio of total sphingomyelin and ceramide levels in KDSR and SPTLC1 KO cells were calculated relative to CTRL cells as shown in FIG. 1e. The select species of sphingomyelins and ceramides shown in Extended Data FIG. 2 represent the top 10 most abundant species that were detected in all 3 biological replicate samples of the CTRL condition to show the effect of SPTLC1 and KDSR KO on the most abundant sphingolipids compared to CTRL.

## CCCCCCCCCCCCCCCC(=O)C(N)CO (stereo not drawn) [3KDS, 3-ketodihydrosphingosine]
[1]; DLD1 cells, various doses, 24 hr (FIG. 2B)
  effect of exogenous 3KDS on cell viability: cell toxicity
[1]; KDSR g1 and g2 KO DLD1 cells, 5 μM 3KDS, 24 hr (FIG. 6)
  toxicity of 3KDS in KDSR KO cells: even more toxic
[2]; wildtype DLD1 cells, 10 μM 3KDS, 24 hr (FIG. 2G)
  cell morphology after 3KDS treatment: aberrant ‘vacuolar’ morphology

## CC(C)C[C@@H](C=O)NC(=O)[C@H](CC(C)C)NC(=O)[C@H](CC(C)C)NC(=O)OCc1ccccc1 [MG132, MG-132] (Cbz-Leu-Leu-Leu-aldehyde)
[3]
  protein aggresome formation: induced formation of protein aggresomes
[4]
  levels of K48 ubiquitinated proteins: accumulation of K48 ubiquitinated proteins
[2]; DLD1 cells, 3 μM MG132, 18 hr, light microscope and calnexin IF (FIG. 4D)
  morphological phenotype / ER structure: strongly resembled the aberrant enlarged ER structures

## CCCCCCC(=O)CCCCCC/C=C/C[C@@H](O)[C@H](O)[C@@](N)(CO)C(=O)O [myriocin, Myriocin]
[5]; KDSR KO DLD1 cells, 15 μM myriocin, 48 hr (FIG. 2F)
  3KDS accumulation in KDSR KO cells under SPT inhibition: prevented 3KDS accumulation
[6]
  viability in lipid-free serum: detrimental to cancer cell viability
[2]; KDSR KO DLD1 cells, 15 μM myriocin, 48 hr (FIG. 2G)
  morphology of KDSR KO cells under SPT inhibition: rescued the aberrant morphological phenotype
[7]; 2 μM myriocin, 72 hr (FIG. 2D)
  effect of myriocin on viability of KDSR KO cells: rescued against the loss of viability

## CCCCCCCCCCCCCCCC(=O)O [palmitate, Palmitic Acid]
[5]; KDSR KO DLD1 cells treated with 50 μM palmitate, 48 hr, relative to CTRL vehicle (FIG. 2F)
  accumulation of 3KDS: 800 fold
[7]; 50 μM palmitate, 48 hr (FIG. 2C)
  effect of palmitate on viability of KDSR KO cells (Bliss independence): synergized with the toxic effect of KDSR KO

## KDSR g1: CRISPR-Cas9 guide RNA targeting KDSR, TGTGTGCAAACCAGAACAGG, SEQ ID NO: 4 (listed as DNA, chemistry not given here; listed as Homo sapiens)
[8]
  KDSR expression after CRISPR/Cas9 targeting: eliminated or substantially reduced
[9]
  Total (RATIO), Cer + SM by LC-MS: 535.9 and 709.0 and 681.9
  Cer (RATIO), total ceramide level by LC-MS: 67.9 and 101.4 and 99.2
  SM (RATIO), total sphingomyelin level by LC-MS: 468.0 and 607.6 and 582.7
  Cer (Percentage of total): 12.7% and 14.3% and 14.5%
  SM (Percentage of total): 87.3% and 85.7% and 85.5%

## KDSR g2: CRISPR-Cas9 guide RNA targeting KDSR, GGCAAACTTGGATGCAGAGT, SEQ ID NO: 5 (listed as DNA, chemistry not given here; listed as Homo sapiens)
[8]
  KDSR expression after CRISPR/Cas9 targeting: eliminated or substantially reduced

## SPTLC1 g1: CRISPR-Cas9 guide RNA targeting SPTLC1, GTGCTACTCACCTTAACCCT, SEQ ID NO: 2 (expressed or natural sequence; listed as Homo sapiens)
[9]
  Total (RATIO), Cer + SM by LC-MS: 720.1 and 485.8 and 520.4
  Cer (RATIO), total ceramide level by LC-MS: 66.2 and 36.6 and 66.9
  SM (RATIO), total sphingomyelin level by LC-MS: 653.9 and 449.2 and 453.5
  Cer (Percentage of total): 9.2% and 7.5% and 12.9%
  SM (Percentage of total): 90.8% and 92.5% and 87.1%

From US20240342255A1, “TARGETING 3-KETODIHYDROSPHINGOSINE REDUCTASE (KDSR) IN CANCER” (UNIVERSITY OF MASSACHUSETTS, priority 2021, published 2024)
